Source: patent publication US7462600B2, “Macrolides” (Pfizer Inc, priority 2004, dated 2008)
Converted amounts (≈) assume the structure as drawn.

How the values were obtained:
Type in all cases: cell-based
[1] = system: Streptococcus pneumoniae 1175; details: Streptococcus pneumoniae 1175; microtiter broth dilution
How it was run: (§1)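 Minimum inhibitory concentration by broth microdilution in trays (NCCLS M100-S14); starting stocks 40 mg/ml, DMSO.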

[2] = system: Streptococcus pneumoniae 1095; details: Streptococcus pneumoniae 1095; microtiter broth dilution
How it was run: as §1

[3] = system: Haemophilus influenzae 1218; assay: MIC, microtiter broth dilution (NCCLS M100-S14), H. influenzae 1218 (susceptible); details: Haemophilus influenzae 1218
How it was run: as §1

[4] = system: Streptococcus pneumoniae 1016; assay: MIC, microtiter broth dilution (NCCLS M100-S14), S. pneumoniae 1016 (susceptible); details: Streptococcus pneumoniae 1016
How it was run: as §1

[5] = system: Streptococcus pyogenes 1079; assay: MIC, microtiter broth dilution (NCCLS M100-S14), S. pyogenes 1079 (ermB); details: Streptococcus pyogenes 1079
How it was run: as §1

Structure (SMILES) | MIC S. pneumo. 1175 [1] [µg/mL] | MIC S. pneumo. 1095 [2] [µg/mL] | MIC H. influenzae 1218 [3] [µg/mL] | MIC S. pneumo. 1016 [4] [µg/mL] | MIC S. pyogenes 1079 [5] [µg/mL]
CCC1OC(=O)C(C)C(=O)C(C)C(OC2OC(C)CC(N(C)C)C2O)C(C)(OC)CC(C)C(=O)C(C)C2N(C3CN(Cc4ccc5c(c4)OCO5)C3)C(=O)OC12C (stereo not drawn) [Example 1.104, 3-descladinosyl-11,12-dideoxy-6-O-methyl-3-oxo-12,11-(oxycarbonyl-(1-(benzo[d][1,3]dioxole-5-methyl)-azetidin-3-yl)-imino)erythromycin A] | 0.125 (≈ 0.156 µM) | <0.063 | 0.25 (≈ 0.312 µM) | <0.063 | >64
CCC1OC(=O)C(C)C(=O)C(C)C(OC2OC(C)CC(N(C)C)C2O)C(C)(OC)CC(C)C(=O)C(C)C2N(C3CN(Cc4ccc(OC)c5nccnc45)C3)C(=O)OC12C (stereo not drawn) [Example 1.105] | 0.125 (≈ 0.149 µM) | <0.063 | 1 (≈ 1.19 µM) | <0.063 | 8 (≈ 9.52 µM)
CCC1OC(=O)C(C)C(=O)C(C)C(OC2OC(C)CC(N(C)C)C2O)C(C)(OC)CC(C)C(=O)C(C)C2N(C3CN(Cc4c(Br)cnc5cccnc45)C3)C(=O)OC12C (stereo not drawn) [Example 1.106, 3-descladinosyl-11,12-dideoxy-6-O-methyl-3-oxo-12,11-(oxycarbonyl-(1-(3-bromo-1,5-naphthyridine-4-methyl)-azetidin-3-yl)-imino)-erythromycin A] | <0.063 | <0.063 | 1 (≈ 1.12 µM) | <0.063 | 0.25 (≈ 0.281 µM)
CCC1OC(=O)C(C)C(=O)C(C)C(OC2OC(C)CC(N(C)C)C2O)C(C)(OC)CC(C)C(=O)C(C)C2N(C3CN(Cc4c(Cl)cnc5ccccc45)C3)C(=O)OC12C (stereo not drawn) [Example 1.107, 3-descladinosyl-11,12-dideoxy-6-O-methyl-3-oxo-12,11-(oxycarbonyl-(1-(3-chloroquinoline-4-methyl)-azetidin-3-yl)-imino)erythromycin A] | <0.063 | <0.063 | 1 (≈ 1.19 µM) | <0.063 | 0.25 (≈ 0.296 µM)
CCOc1cnc2ncccc2c1CN1CC(N2C(=O)OC3(C)C(CC)OC(=O)C(C)C(=O)C(C)C(OC4OC(C)CC(N(C)C)C4O)C(C)(OC)CC(C)C(=O)C(C)C23)C1 (stereo not drawn) [Example 1.108, 3-descladinosyl-11,12-dideoxy-6-O-methyl-3-oxo-12,11-(oxycarbonyl-(1-(3-ethoxy-1,8-naphthyridine-4-methyl)-azetidin-3-yl)-imino)-erythromycin A] | 0.125 (≈ 0.146 µM) | <0.063 | 1 (≈ 1.17 µM) | <0.063 | 0.5 (≈ 0.585 µM)
CCC1OC(=O)C(C)C(=O)C(C)C(OC2OC(C)CC(N(C)C)C2O)C(C)(OC)CC(C)C(=O)C(C)C2N(C3CN(C(=O)c4cncc5ccccc45)C3)C(=O)OC12C (stereo not drawn) [Example 2.01] | 0.25 (≈ 0.304 µM) | 32 (≈ 38.9 µM) | 4 (≈ 4.86 µM) | <0.06 | >64.00
CCC1OC(=O)C(C)C(=O)C(C)C(OC2OC(C)CC(N(C)C)C2O)C(C)(OC)CC(C)C(=O)C(C)C2N(C3CN(C(=O)c4cccc5[nH]c(C)nc45)C3)C(=O)OC12C (stereo not drawn) [Example 2.02] | 2 (≈ 2.42 µM) | >64.00 | 2 (≈ 2.42 µM) | <0.06 | >64.00
CCC1OC(=O)C(C)C(=O)C(C)C(OC2OC(C)CC(N(C)C)C2O)C(C)(OC)CC(C)C(=O)C(C)C2N(C3CN(C(=O)Nc4ccc5ccccc5c4)C3)C(=O)OC12C (stereo not drawn) [Example 2.04] | <0.06 | 8 (≈ 9.56 µM) | 8 (≈ 9.56 µM) | <0.06 | 32 (≈ 38.2 µM)
CCC1OC(=O)C(C)C(=O)C(C)C(OC2OC(C)CC(N(C)C)C2O)C(C)(OC)CC(C)C(=O)C(C)C2N(C3CN(C(=O)Nc4ccc5ncccc5c4)C3)C(=O)OC12C (stereo not drawn) [Example 2.05, N-(quinolin-6-yl) aminocarbonyl] | <0.06 | 16 (≈ 19.1 µM) | 0.5 (≈ 0.597 µM) | <0.06 | 64 (≈ 76.4 µM)
CCC1OC(=O)C(C)C(=O)C(C)C(OC2OC(C)CC(N(C)C)C2O)C(C)(OC)CC(C)C(=O)C(C)C2N(C3CN(C(=O)Nc4cccc5ncccc45)C3)C(=O)OC12C (stereo not drawn) [Example 2.06, 3-descladinosyl-11,12-dideoxy-6-O-methyl-3-oxo-12,11-(oxycarbonyl-(1-(N-(quinolin-5-yl)-aminocarbonyl)-azetidin-3-yl)-imino)-erythromycin A] | 0.25 (≈ 0.298 µM) | 16 (≈ 19.1 µM) | 0.5 (≈ 0.597 µM) | <0.06 | >64.00
CCC1OC(=O)C(C)C(=O)C(C)C(OC2OC(C)CC(N(C)C)C2O)C(C)(OC)CC(C)C(=O)C(C)C2N(C3CN(C(=O)Nc4cc(-c5ccc(F)cc5)n[nH]4)C3)C(=O)OC12C (stereo not drawn) [Example 2.07] | 32 (≈ 36.7 µM) | 4 (≈ 4.59 µM) | 16 (≈ 18.4 µM) | <0.06 | 16 (≈ 18.4 µM)
CCC1OC(=O)C(C)C(=O)C(C)C(OC2OC(C)CC(N(C)C)C2O)C(C)(OC)CC(C)C(=O)C(C)C2N(C3CN(C(=O)Nc4cc(-c5cncc(C)c5)n[nH]4)C3)C(=O)OC12C (stereo not drawn) [Example 2.08] | 16 (≈ 18.4 µM) | 1 (≈ 1.15 µM) | 8 (≈ 9.22 µM) | <0.06 | 32 (≈ 36.9 µM)
CCC1OC(=O)C(C)C(=O)C(C)C(OC2OC(C)CC(N(C)C)C2O)C(C)(OC)CC(C)C(=O)C(C)C2N(C3CN(C(=O)Nc4cccc5nccnc45)C3)C(=O)OC12C (stereo not drawn) [Example 2.09, N-(quinoxalin-8-yl) aminocarbonyl] | 0.25 (≈ 0.298 µM) | 16 (≈ 19.1 µM) | 8 (≈ 9.54 µM) | <0.06 | >64.00
CCC1OC(=O)C(C)C(=O)C(C)C(OC2OC(C)CC(N(C)C)C2O)C(C)(OC)CC(C)C(=O)C(C)C2N(C3CN(C(=O)NCc4ccc5ncccc5c4)C3)C(=O)OC12C (stereo not drawn) [Example 2.10, N-((quinolin-6-yl)inethyl) aminocarbonyl] | 0.25 (≈ 0.293 µM) | 8 (≈ 9.39 µM) | 2 (≈ 2.35 µM) | <0.06 | >64.00
CCC1OC(=O)C(C)C(=O)C(C)C(OC2OC(C)CC(N(C)C)C2O)C(C)(OC)CC(C)C(=O)C(C)C2N(C3CN(C(=O)NCc4cnc5ccccc5c4)C3)C(=O)OC12C (stereo not drawn) [Example 2.11, N-((quinolin-3-)methyl) aminocarbonyl] | 0.12 (≈ 0.141 µM) | 2 (≈ 2.35 µM) | 0.5 (≈ 0.587 µM) | <0.06 | >64.00
